Consider four compounds from ChEMBL document CHEMBL5380792, “Discovery of CZS-241: A Potent, Selective, and Orally Available Polo-Like Kinase 4 Inhibitor for the Treatment of Chronic Myeloid Leukemia” (J Med Chem, 2023).

The structures appear in SMILES notation.

Data set [1] is described as follows: in vitro. The following applies: human, liver microsomes.
A short description of data set [2]: in vitro. The following applies: human, liver microsomes. This is another data set of the same source. In general terms: Microsomes from liver hold many membrane-bound enzymes, among them those of drug oxidation.
The nature of data set [3]: in vitro. The note with it: human, plasma.
A short description of data set [4]: in vitro. The note with it: human, plasma. This is another data set of the same source.
A short description of data set [5]: in vitro. The note with it: human, plasma. The source holds these as a separate data set.
Data set [6] in a line: in vitro. The following applies: human, plasma. This is another data set of the same source.
Data set [7] in a line: in vitro. The note with it: human, liver microsomes. The source holds these as a separate data set.
The nature of data set [8]: in vitro. The note with it: human, plasma. This is another data set of the same source.

As for `COc1c(Nc2cc(C)[nH]n2)nc(Sc2ccc(S(=O)(=O)Cc3cccc([N+](=O)[O-])c3F)cc2F)nc1N1CCOCC1`, the fraction remaining at 1 h in “in vitro [1]” came to 1.7%; in the data set “in vitro [2]” it was 98.6%; in the data set “in vitro [5]”, 95.4%. Further, the share remaining at 10 min in the data set “in vitro [3]” was found to be 101%. For the same compound, the amount remaining at 0.5 h in “in vitro [4]” was found to be 95%. In the data set “in vitro [6]”, the fraction remaining at 2 h worked out at 97.3%.
With `O=C(O)Cc1ccccc1Nc1c(Cl)cccc1Cl` [DICLOFENAC], in the data set “in vitro [7]”, the half-life is 3.2 min.
Compound `CC(C)[N+](C)(CCOC(=O)C1c2ccccc2Oc2ccccc21)C(C)C.[Br-]` [PROPANTHELINE BROMIDE] came in with a half-life in the data set “in vitro [8]” of 19.8 min.
As to `C[C@]12CC[C@H]3[C@@H](CCC4=CC(=O)CC[C@@]43C)[C@@H]1CC[C@@H]2O` [TESTOSTERONE], in “in vitro [7]”, the half-life came out at 11.4 min.

In general, half-life refers to how long it takes for the measured level to halve. A lower half-life goes with rapid decline.
